Patent US20150359913A1, “TETRAZINES/TRANS-CYCLOOCTENES IN SOLID PHASE SYNTHESIS OF LABELED PEPTIDES” (MEMORIAL SLOAN-KETTERING CANCER CENTER, priority 2013, published 2015)

How the values were obtained:
A33 antigen (human) [1] = target: A33 antigen (human) (UniProt Q99795); assay: immunoreactivity of the TCO-modified antibody (assay not described in this sentence)
A33 antigen (human) [2] = target: A33 antigen (human) (UniProt Q99795); assay: immunoreactivity assay of the radiolabelled antibody (cells not given)
A33 antigen (human) [3] = target: A33 antigen (human) (UniProt Q99795); assay: immunoreactivity assay with A33 antigen-expressing SW1222 human colorectal cancer cells, radiolabelled antibody
[4] = system: subcutaneous SW1222 xenografts; assay: pre-targeted biodistribution: A33-TCO, 24 h later ^64Cu-Tz-Bn-NOTA; type: in vivo, mice; settings: for Biodistribution: Blood / Biodistribution: Bone / Biodistribution: Feces / Biodistribution: Heart / Biodistribution: Kidney / Biodistribution: Large intestine / Biodistribution: Liver / Biodistribution: Lung / Biodistribution: Muscle / Biodistribution: Skin / Biodistribution: Small intestine / Biodistribution: Spleen / Biodistribution: Stomach / Biodistribution: Tumor: A33-TCO (100 μg) 24 h before ^64Cu-Tz-Bn-NOTA; for uptake in all other tissues (not tumor, feces): generally
Procedure: Values are represented as % ID/g±SD. Mice (n=4) bearing subcutaneous SW1222 xenografts were administered huA33-TCO (100 μg) via tail vein injection. After 24 hours the same mice were administered ^64Cu-Tz-Bn-NOTA (0.55-0.75 MBq [15-20 μCi] via tail vein injection (t=0).
Following the synthesis and characterization of the components of the system, in vivo pre-targeted biodistribution and PET imaging experiments were performed. For the pre-targeted biodistribution experiments, mice bearing SW1222 xenografts were administered huA33-TCO (100 μg) via tail vein injection. After a 24 h interval, the mice were administered ^64Cu-Tz-NOTA via tail vein injection. The data reveal rapid accumulation and retention of activity in the tumor, with 4.1±0.3% ID/g at 1 h p.i and 4.2±0.3% ID/g at 12 h p.i. (Table 1). The compound is excreted through the feces, with high levels of activity at 1 h p.i. dropping to 0.9±0.1% ID/g at 12 h, and the amount of uptake in other tissues remains very low, generally less than 0.3% ID/g.
For the pre-targeted biodistribution experiments, mice bearing subcutaneous SW1222 xenografts were administered A33-TCO ([…]) via tail vein injection. […] The data reveal rapid accumulation and retention of radioactivity in the tumor, with 4.1±0.3 percent injected dose per gram (% ID/g) at 1 h after injection, 4.2±0.8% ID/g at 12 h, and 4.0±0.9% ID/g at 24 h (Table 1). The compound is excreted through the feces, with high levels of activity at 1 h after injection dropping to 2.5±0.1% ID/g at 12 h. The amount of uptake in all other tissues remains low, generally less than 1% ID/g.
The specificity of antibodies have made immunoconjugates promising vectors for the delivery of radioisotopes to cancer cells; however, their long pharmacologic half-lives necessitate the use of radioisotopes with long physical half-lives, a combination that leads to high radiation doses to patients. Therefore, the development of targeting modalities that harness the advantages of antibodies without their pharmacokinetic limitations is desirable. To this end, we report the development of a methodology for pre-targeted PET imaging based on the bioorthogonal Diels-Alder click reaction between tetrazine and transcyclooctene. A proof-of-concept system based on the A33 antibody, SW1222 colorectal cancer cells, and ^64Cu was used. The huA33 antibody was covalently modified with transcyclooctene, and a NOTA-modified tetrazine was synthesized and radiolabeled with ^64Cu. Pre-targeted in vivo biodistribution and PET imaging experiments were performed with athymic nude mice bearing A33 antigen-expressing, SW1222 colorectal cancer xenografts. The huA33 antibody was modified with transcyclooctene to produce a conjugate with high immunoreactivity, and the ^64Cu-NOTA-labeled tetrazine ligand was synthesized with greater than 99% purity and a specific activity of 9-10 MBq/mg. For in vivo experiments, mice bearing SW1222 xenografts were injected with transcyclooctene-modified A33; after allowing 24 h for accumulation of the antibody in the tumor, the mice were injected with 64Cu-NOTA-labeled tetrazine for PET imaging and biodistribution experiments. At 12 h after injection, the retention of uptake in the tumor ([…] percent injected dose per gram), coupled with the fecal excretion of excess radioligand, produced images with high tumor-to-background ratios. […] Conclusion: The high quality of the images produced by this pretargeting approach, combined with the ability of the methodology to dramatically reduce non-target radiation doses to patients, marks this system as a strong candidate for clinical translation.

[5] = in vitro stability of the radioligand in human serum at 37° C., HPLC; type: in vitro ADME
Procedure: (§1) The stability of the radioligand was assayed in vitro by incubation in human serum at 37° C. and subsequent HPLC analysis. The ^64Cu-Tz-Bn-NOTA remained relatively stable after 1 h, with 93.0%±2.5% intact. […] In addition, in vivo stability experiments were performed, and these produced similar results, although some acceleration in decomposition can be noted: 77%±3% of the ^64Cu-Tz-Bn-NOTA is intact in the blood after 60 min, followed by 47%±2% after 2 h and 22%±3% after 6 h. Although greater stability may be preferable, the speed of the cycloaddition reaction and the rapid pharmacokinetics of the radioligand led us to believe it unlikely that poor serum stability at later time points would limit the system.

[6] = in vivo stability of the radioligand in the blood
Procedure: as §1

Sequence of UniProt Q99795 (Q99795 22-319): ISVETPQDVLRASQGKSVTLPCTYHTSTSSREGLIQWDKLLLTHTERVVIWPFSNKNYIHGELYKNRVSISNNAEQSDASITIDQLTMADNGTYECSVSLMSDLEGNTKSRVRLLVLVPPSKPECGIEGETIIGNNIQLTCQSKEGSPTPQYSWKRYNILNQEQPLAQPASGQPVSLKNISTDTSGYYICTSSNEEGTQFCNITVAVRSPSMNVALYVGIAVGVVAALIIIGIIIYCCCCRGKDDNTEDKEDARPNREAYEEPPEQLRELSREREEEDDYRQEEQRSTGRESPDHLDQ

TCO-modified huA33 (huA33-TCO) (antibody)
immunoreactivity (A33 antigen (human) [1]): > 95%

^89Zr-DFO-A33 (antibody)
immunoreactivity (A33 antigen (human) [2]): 92%

^64Cu-NOTA-A33 (A33-TCO reacted with ^64Cu-Tz-Bn-NOTA) (antibody)
immunoreactivity (A33 antigen (human) [2]): > 95% | immunoreactivity (A33 antigen (human) [3]): 95.6%

O=C([O-])CN1CCN(CC(=O)[O-])CC(Cc2ccc(NC(=O)CCCC(=O)NCc3ccc(-c4nncnn4)cc3)cc2)N(CC(=O)[O-])CC1.[64Cu+2] (stereo not drawn) [^64Cu-Tz-Bn-NOTA]
Biodistribution: Blood ([4]; 1 h): 3.5 ± 0.6 % ID/g | Biodistribution: Bone ([4]; 1 h): 0.3 ± 0.2 % ID/g | Biodistribution: Feces ([4]; 1 h): 11.9 ± 4.4 % ID/g | Biodistribution: Heart ([4]; 1 h): 1.1 ± 0.2 % ID/g | Biodistribution: Kidney ([4]; 1 h): 1.3 ± 0.1 % ID/g | Biodistribution: Large intestine ([4]; 1 h): 0.5 ± 0.0 % ID/g | Biodistribution: Liver ([4]; 1 h): 2.2 ± 0.3 % ID/g | Biodistribution: Lung ([4]; 1 h): 1.6 ± 0.5 % ID/g | Biodistribution: Muscle ([4]; 1 h): 0.2 ± 0.0 % ID/g | Biodistribution: Skin ([4]; 1 h): 0.3 ± 0.1 % ID/g | Biodistribution: Small intestine ([4]; 1 h): 0.0 ± 0.0 % ID/g | Biodistribution: Spleen ([4]; 1 h): 0.6 ± 0.1 % ID/g | Biodistribution: Stomach ([4]; 1 h): 0.5 ± 0.1 % ID/g | Biodistribution: Tumor ([4]; 1 h): 4.1±0.3 % ID/g | Biodistribution: Tumor ([4]; 1 h, listed as 64Cu-Tz-NOTA): 4.1±0.3 % ID/g | Biodistribution: Blood ([4]; 4 h): 2.6 ± 0.8 % ID/g | Biodistribution: Bone ([4]; 4 h): 0.3 ± 0.2 % ID/g | Biodistribution: Feces ([4]; 4 h): 8.8 ± 3.4 % ID/g | Biodistribution: Heart ([4]; 4 h): 0.9 ± 0.3 % ID/g | Biodistribution: Kidney ([4]; 4 h): 0.9 ± 0.3 % ID/g | Biodistribution: Large intestine ([4]; 4 h): 3.1 ± 1.1 % ID/g | Biodistribution: Liver ([4]; 4 h): 1.3 ± 0.3 % ID/g | Biodistribution: Lung ([4]; 4 h): 1.6 ± 0.4 % ID/g | Biodistribution: Muscle ([4]; 4 h): 0.1 ± 0.0 % ID/g | Biodistribution: Skin ([4]; 4 h): 0.3 ± 0.1 % ID/g | Biodistribution: Small intestine ([4]; 4 h): 0.4 ± 0.1 % ID/g | Biodistribution: Spleen ([4]; 4 h): 0.5 ± 0.2 % ID/g | Biodistribution: Stomach ([4]; 4 h): 0.3 ± 0.1 % ID/g | Biodistribution: Tumor ([4]; 4 h): 4.1 ± 0.6 % ID/g | Biodistribution: Blood ([4]; 12 h): 2.3 ± 0.4 % ID/g | Biodistribution: Bone ([4]; 12 h): 0.4 ± 0.1 % ID/g | Biodistribution: Feces ([4]; 12 h): 2.5±0.1 % ID/g | Biodistribution: Heart ([4]; 12 h): 0.9 ± 0.1 % ID/g | Biodistribution: Kidney ([4]; 12 h): 0.9 ± 0.3 % ID/g | Biodistribution: Large intestine ([4]; 12 h): 2.3 ± 1.0 % ID/g | Biodistribution: Liver ([4]; 12 h): 0.9 ± 0.2 % ID/g | Biodistribution: Lung ([4]; 12 h): 1.1 ± 0.4 % ID/g | Biodistribution: Muscle ([4]; 12 h): 0.2 ± 0.0 % ID/g | Biodistribution: Skin ([4]; 12 h): 0.4 ± 0.1 % ID/g | Biodistribution: Small intestine ([4]; 12 h): 0.8 ± 0.5 % ID/g | Biodistribution: Spleen ([4]; 12 h): 0.6 ± 0.3 % ID/g | Biodistribution: Stomach ([4]; 12 h): 0.5 ± 0.6 % ID/g | Biodistribution: Tumor ([4]; 12 h): 4.2±0.8 % ID/g | Biodistribution: Tumor ([4]; 12 h, listed as 64Cu-NOTA-labeled tetrazine): 4.1±0.3 % ID/g | Biodistribution: Feces ([4]; 12 h, listed as 64Cu-Tz-NOTA): 0.9±0.1 % ID/g | Biodistribution: Tumor ([4]; 12 h, listed as 64Cu-Tz-NOTA): 4.2±0.3 % ID/g | tumor-to-muscle activity concentration ratio ([4]; 12 h, pre-targeting, A33-TCO 24 h before radioligand): 26.6±6.6 | Biodistribution: Blood ([4]; 24 h): 2.1 ± 0.5 % ID/g | Biodistribution: Bone ([4]; 24 h): 0.3 ± 0.1 % ID/g | Biodistribution: Feces ([4]; 24 h): 1.4 ± 0.5 % ID/g | Biodistribution: Heart ([4]; 24 h): 0.8 ± 0.2 % ID/g | Biodistribution: Kidney ([4]; 24 h): 0.7 ± 0.2 % ID/g | Biodistribution: Large intestine ([4]; 24 h): 1.1 ± 0.4 % ID/g | Biodistribution: Liver ([4]; 24 h): 1.1 ± 0.2 % ID/g | Biodistribution: Lung ([4]; 24 h): 1.0 ± 0.3 % ID/g | Biodistribution: Muscle ([4]; 24 h): 0.1 ± 0.0 % ID/g | Biodistribution: Skin ([4]; 24 h): 0.5 ± 0.2 % ID/g | Biodistribution: Small intestine ([4]; 24 h): 0.3 ± 0.0 % ID/g | Biodistribution: Spleen ([4]; 24 h): 0.4 ± 0.1 % ID/g | Biodistribution: Stomach ([4]; 24 h): 0.2 ± 0.0 % ID/g | Biodistribution: Tumor ([4]; 24 h): 4.0±0.9 % ID/g | uptake in all other tissues (not tumor, feces) ([4]; pre-targeting): less than 1 % ID/g | uptake in all other tissues (not tumor, feces) ([4]; pre-targeting, listed as 64Cu-Tz-NOTA): less than 0.3 % ID/g | radioligand intact ([5]; 1 h): 93.0%±2.5% | radioligand intact ([5]; 12 h): 31.6%±6.1% | radioligand intact in the blood ([6]; 60 min): 77%±3% | radioligand intact in the blood ([6]; 2 h): 47%±2% | radioligand intact in the blood ([6]; 6 h): 22%±3%
